pIC50: −log10 of the molar value. Bounds are passed on as bounds.

The results in this text go back to ChEMBL document CHEMBL1681676, “The design and synthesis of novel N-hydroxyformamide inhibitors of ADAM-TS4 for the treatment of osteoarthritis” (Bioorg Med Chem Lett, 2011).

Chain of Voltage-gated inwardly rectifying potassium channel KCNH2 (Q12809 whole entry): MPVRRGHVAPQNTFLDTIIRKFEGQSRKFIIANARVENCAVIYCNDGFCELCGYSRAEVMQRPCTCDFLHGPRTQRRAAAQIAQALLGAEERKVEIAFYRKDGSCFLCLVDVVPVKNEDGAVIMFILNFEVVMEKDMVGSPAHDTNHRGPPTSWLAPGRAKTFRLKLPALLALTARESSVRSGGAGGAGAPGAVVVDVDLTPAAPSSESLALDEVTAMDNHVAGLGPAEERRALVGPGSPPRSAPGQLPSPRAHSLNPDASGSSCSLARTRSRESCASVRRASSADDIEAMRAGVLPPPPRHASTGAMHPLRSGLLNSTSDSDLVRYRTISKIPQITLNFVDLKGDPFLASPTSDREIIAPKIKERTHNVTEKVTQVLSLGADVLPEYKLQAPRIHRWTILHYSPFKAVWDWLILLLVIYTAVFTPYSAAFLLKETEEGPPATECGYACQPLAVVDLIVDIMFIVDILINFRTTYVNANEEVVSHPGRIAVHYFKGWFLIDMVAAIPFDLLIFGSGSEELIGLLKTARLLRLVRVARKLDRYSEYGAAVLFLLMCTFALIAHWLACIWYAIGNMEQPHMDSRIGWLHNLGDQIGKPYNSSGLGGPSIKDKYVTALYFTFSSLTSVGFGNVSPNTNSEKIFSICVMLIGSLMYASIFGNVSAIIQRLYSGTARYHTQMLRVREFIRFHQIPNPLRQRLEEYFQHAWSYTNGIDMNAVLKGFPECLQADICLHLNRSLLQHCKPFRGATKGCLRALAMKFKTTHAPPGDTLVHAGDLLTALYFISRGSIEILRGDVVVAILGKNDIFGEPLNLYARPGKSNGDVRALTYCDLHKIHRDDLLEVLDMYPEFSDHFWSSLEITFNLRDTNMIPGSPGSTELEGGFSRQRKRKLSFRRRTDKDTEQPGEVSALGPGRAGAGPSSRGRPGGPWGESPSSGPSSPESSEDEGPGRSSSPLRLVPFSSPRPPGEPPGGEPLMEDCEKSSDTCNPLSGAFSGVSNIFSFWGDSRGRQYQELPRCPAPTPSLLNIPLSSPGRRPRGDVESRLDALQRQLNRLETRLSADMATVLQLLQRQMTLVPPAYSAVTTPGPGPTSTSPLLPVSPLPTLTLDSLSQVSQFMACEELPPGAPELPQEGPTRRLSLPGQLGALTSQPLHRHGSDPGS
Chain of Cytochrome P450 3A4 (P08684 whole entry): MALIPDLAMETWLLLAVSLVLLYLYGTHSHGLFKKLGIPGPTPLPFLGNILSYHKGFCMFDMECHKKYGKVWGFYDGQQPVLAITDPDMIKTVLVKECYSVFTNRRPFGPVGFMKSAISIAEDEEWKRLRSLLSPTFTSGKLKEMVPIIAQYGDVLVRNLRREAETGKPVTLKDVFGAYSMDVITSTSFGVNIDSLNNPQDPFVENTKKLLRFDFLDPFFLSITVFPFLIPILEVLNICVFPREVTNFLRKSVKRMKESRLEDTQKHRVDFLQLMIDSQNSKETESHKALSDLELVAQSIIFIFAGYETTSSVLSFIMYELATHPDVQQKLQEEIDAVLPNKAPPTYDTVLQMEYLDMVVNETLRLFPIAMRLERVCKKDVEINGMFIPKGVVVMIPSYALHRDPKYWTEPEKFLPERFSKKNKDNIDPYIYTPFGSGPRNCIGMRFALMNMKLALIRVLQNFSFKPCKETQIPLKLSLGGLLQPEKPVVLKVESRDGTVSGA
Chain of 72 kDa type IV collagenase (P08253 whole entry): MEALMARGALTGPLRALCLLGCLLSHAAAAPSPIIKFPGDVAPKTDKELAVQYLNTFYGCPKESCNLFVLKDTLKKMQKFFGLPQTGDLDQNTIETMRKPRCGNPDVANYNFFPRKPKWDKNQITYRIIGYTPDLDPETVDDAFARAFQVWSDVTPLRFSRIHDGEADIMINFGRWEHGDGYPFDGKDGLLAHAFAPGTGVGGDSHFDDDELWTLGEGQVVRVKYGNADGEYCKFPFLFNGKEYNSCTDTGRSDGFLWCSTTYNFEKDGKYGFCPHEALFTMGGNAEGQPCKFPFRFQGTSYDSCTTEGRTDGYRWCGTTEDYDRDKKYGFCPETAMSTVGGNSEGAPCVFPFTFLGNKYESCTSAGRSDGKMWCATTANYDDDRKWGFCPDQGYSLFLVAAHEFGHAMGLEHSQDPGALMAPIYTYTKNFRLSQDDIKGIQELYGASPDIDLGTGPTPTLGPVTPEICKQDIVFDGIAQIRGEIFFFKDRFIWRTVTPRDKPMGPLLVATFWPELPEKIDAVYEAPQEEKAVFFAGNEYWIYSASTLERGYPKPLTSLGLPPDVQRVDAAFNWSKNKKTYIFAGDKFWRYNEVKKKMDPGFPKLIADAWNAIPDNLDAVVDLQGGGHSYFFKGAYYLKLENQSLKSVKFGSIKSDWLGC

System in the first series: not listed separately
The experiment in a line: Half life in Han Wistar rat at 2 mg/kg, iv and po by LC-MS/MS analysis. More on the design: dose 2 mg/kg, route oral. Particulars: in vivo. Type of series: ADME, organism-based.
Broadly, the half-life is the time in which the quantity being followed falls by half. A higher half-life goes with slow decline. `C[C@@H](C[C@@](C)(CS(=O)(=O)N1CCN(CCc2ccc(Cl)cc2Cl)CC1)N(O)C=O)c1ncc(F)cn1` had a half-life of 5.6 h.

Turning to `C[C@@H](C[C@@](C)(CS(=O)(=O)N1CCC(CCc2ccc(Cl)cc2Cl)CC1)N(O)C=O)c1ncc(F)cn1`, the half-life is 14.9 h.

A further series addresses Voltage-gated inwardly rectifying potassium channel KCNH2 (Homo sapiens, UniProt Q12809). The experiment in a line: Inhibition of human ERG.
Conditions: not given
Usually pIC50 stands for the negative decadic logarithm of the IC50, by convention in mol/L. On to `C[C@@H](C[C@@H](CS(=O)(=O)N1CCN(c2ccc(F)cc2)CC1)N(O)C=O)c1ncc(F)cn1`, for which the negative logarithm of the IC50 (pIC50) is 4.59.

Compound `C[C@@H](C[C@@](C)(CS(=O)(=O)N1CCN(c2ccc(F)cc2)CC1)N(O)C=O)c1ncc(F)cn1` showed a pIC50 of 4.68.

Another series addresses 72 kDa type IV collagenase (Homo sapiens, UniProt P08253). Description: Inhibition of recombinant human MMP2 assessed as substrate cleavage by measuring increase in fluorescence after 16 hrs.
Conditions: not given
Consider `Cc1cc(C(F)(F)F)ccc1CCC1CCN(S(=O)(=O)C[C@](C)(C[C@H](C)c2ncc(F)cn2)N(O)C=O)CC1`, for which the pIC50 was 6.46.

System in another series: not listed separately
The experiment in a line: Intrinsic clearance in rat hepatocytes measured per 10^6 cells. The class given is ADME, cell-based, Liver, Hepatocyte.
Conditions: not given
By hepatocyte CLint is commonly meant the rate of metabolic loss divided by the concentration. High values mean rapid turnover, low ones slow turnover. For `C[C@@H](C[C@@](C)(CS(=O)(=O)N1CCN(CCc2ccc(Cl)cc2Cl)CC1)N(O)C=O)c1ncc(F)cn1`, the intrinsic metabolic clearance (hepatocyte CLint) came out at 10.2 µL/min/1e6 cells.

In the case of `C[C@@H](C[C@@](C)(CS(=O)(=O)N1CCC(CCc2ccc(Cl)cc2Cl)CC1)N(O)C=O)c1ncc(F)cn1`, the hepatocyte CLint is 7.6 µL/min/1e6 cells.

The target in another series is Matrix metalloproteinase-14 (Homo sapiens, UniProt P50281). The experiment in a line: Inhibition of recombinant human MMP14 assessed as substrate cleavage by measuring increase in fluorescence after 16 hrs.
Conditions: not given
On to `Cc1cc(C(F)(F)F)ccc1CCC1CCN(S(=O)(=O)C[C@](C)(C[C@H](C)c2ncc(F)cn2)N(O)C=O)CC1`, for which the pIC50 is 5.34.

As to `C[C@@H](C[C@@H](CS(=O)(=O)N1CCN(c2ccc(F)cc2)CC1)N(O)C=O)c1ncc(F)cn1`, the negative logarithm of the IC50 (pIC50) is 7.96.

Consider `C[C@@H](C[C@@](C)(CS(=O)(=O)N1CCN(c2ccc(F)cc2)CC1)N(O)C=O)c1ncc(F)cn1`, for which the pIC50 is 8.12.

System in another series: not listed separately
Description: Clearance in Han Wistar rat at 2 mg/kg, iv by LC-MS/MS analysis. Type of series: ADME, organism-based. More on the design: dose 2 mg/kg, route intravenous. The following applies: in vivo.
As a reminder, the clearance is a measure of how efficiently the substance is removed, as volume per time. With `C[C@@H](C[C@@](C)(CS(=O)(=O)N1CCN(CCc2ccc(Cl)cc2Cl)CC1)N(O)C=O)c1ncc(F)cn1`, the clearance turned out to be 14 mL/min/kg.

Turning to `C[C@@H](C[C@@](C)(CS(=O)(=O)N1CCC(CCc2ccc(Cl)cc2Cl)CC1)N(O)C=O)c1ncc(F)cn1`, the clearance came out at 20 mL/min/kg.

A further series addresses T1, A disintegrin and metalloproteinase with thrombospondin motifs 4 (Homo sapiens, UniProt O75173).
T1 sequence (O75173 whole entry): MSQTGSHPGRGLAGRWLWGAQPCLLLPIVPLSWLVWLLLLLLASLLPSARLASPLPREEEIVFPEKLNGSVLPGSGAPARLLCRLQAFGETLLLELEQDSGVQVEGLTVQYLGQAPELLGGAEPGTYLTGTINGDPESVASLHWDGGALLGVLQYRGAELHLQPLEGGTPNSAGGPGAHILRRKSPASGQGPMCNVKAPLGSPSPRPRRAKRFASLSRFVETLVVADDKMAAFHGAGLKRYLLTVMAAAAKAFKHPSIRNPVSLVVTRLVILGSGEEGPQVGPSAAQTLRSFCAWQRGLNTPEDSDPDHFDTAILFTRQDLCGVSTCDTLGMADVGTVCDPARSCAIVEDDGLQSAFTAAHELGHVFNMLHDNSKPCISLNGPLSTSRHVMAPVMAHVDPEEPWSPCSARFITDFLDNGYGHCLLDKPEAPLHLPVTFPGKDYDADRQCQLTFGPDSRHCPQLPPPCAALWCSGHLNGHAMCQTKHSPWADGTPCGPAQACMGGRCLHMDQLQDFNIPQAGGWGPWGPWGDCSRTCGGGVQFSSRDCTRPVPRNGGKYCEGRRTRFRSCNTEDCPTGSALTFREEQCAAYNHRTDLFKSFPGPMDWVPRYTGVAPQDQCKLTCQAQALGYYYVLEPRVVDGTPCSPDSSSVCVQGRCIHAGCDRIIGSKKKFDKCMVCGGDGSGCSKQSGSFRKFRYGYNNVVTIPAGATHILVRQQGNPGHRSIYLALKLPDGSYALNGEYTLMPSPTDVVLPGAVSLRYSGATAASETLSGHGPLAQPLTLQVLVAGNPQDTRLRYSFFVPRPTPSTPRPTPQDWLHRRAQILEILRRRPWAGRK
The experiment in a line: Inhibition of ADAMTS-4 assessed as substrate cleavage by measuring increase in fluorescence after 16 hrs.
Conditions: not given
On to `Cc1cc(C(F)(F)F)ccc1CCC1CCN(S(=O)(=O)C[C@](C)(C[C@H](C)c2ncc(F)cn2)N(O)C=O)CC1`, for which the pIC50 was 9.31.

As to `C[C@@H](C[C@@H](CS(=O)(=O)N1CCN(c2ccc(F)cc2)CC1)N(O)C=O)c1ncc(F)cn1`, the pIC50 is 8.85.

For the compound `C[C@@H](C[C@@](C)(CS(=O)(=O)N1CCN(c2ccc(F)cc2)CC1)N(O)C=O)c1ncc(F)cn1`, the negative-log IC50 (pIC50) is 8.14.

With `C[C@@H](C[C@@](C)(CS(=O)(=O)N1CCN(CCc2ccc(Cl)cc2Cl)CC1)N(O)C=O)c1ncc(F)cn1`, the negative logarithm of the IC50 (pIC50) is 8.42.

As for `C[C@@H](C[C@@](C)(CS(=O)(=O)N1CCC(CCc2ccc(Cl)cc2Cl)CC1)N(O)C=O)c1ncc(F)cn1`, the negative logarithm of the IC50 (pIC50) was 8.96.

A further series concerns the target Cytochrome P450 3A4 (Homo sapiens, UniProt P08684). Description: Inhibition of CYP3A4. Type of series: ADME.
Conditions: not given
The compound `C[C@@H](C[C@@H](CS(=O)(=O)N1CCN(c2ccc(F)cc2)CC1)N(O)C=O)c1ncc(F)cn1` gave a pIC50 of 5.85.

Regarding `C[C@@H](C[C@@](C)(CS(=O)(=O)N1CCN(c2ccc(F)cc2)CC1)N(O)C=O)c1ncc(F)cn1`, the pIC50 was less than 5.00.

A further series addresses Collagenase 3 (Homo sapiens, UniProt P45452). The experiment in a line: Inhibition of recombinant human MMP13 assessed as substrate cleavage by measuring increase in fluorescence after 16 hrs.
Conditions: not given
As for `Cc1cc(C(F)(F)F)ccc1CCC1CCN(S(=O)(=O)C[C@](C)(C[C@H](C)c2ncc(F)cn2)N(O)C=O)CC1`, the pIC50 was 5.64.

Consider `C[C@@H](C[C@@H](CS(=O)(=O)N1CCN(c2ccc(F)cc2)CC1)N(O)C=O)c1ncc(F)cn1`, for which the negative logarithm of the IC50 (pIC50) is 7.96.

With `C[C@@H](C[C@@](C)(CS(=O)(=O)N1CCN(c2ccc(F)cc2)CC1)N(O)C=O)c1ncc(F)cn1`, the negative-log IC50 (pIC50) was 8.12.

System in the next series: not listed separately
The experiment in a line: Oral bioavailability in Han Wistar rat at 3 to 10 mg/kg by LC-MS/MS analysis. The class given is ADME, organism-based. Particulars: in vivo.
The term bioavailability denotes the share of a dose that reaches the circulation, judged against a reference dose that is usually intravenous. Low values mean poor availability, high ones good availability. With `C[C@@H](C[C@@](C)(CS(=O)(=O)N1CCN(CCc2ccc(Cl)cc2Cl)CC1)N(O)C=O)c1ncc(F)cn1`, the bioavailability is 30%.

Consider `C[C@@H](C[C@@](C)(CS(=O)(=O)N1CCC(CCc2ccc(Cl)cc2Cl)CC1)N(O)C=O)c1ncc(F)cn1`, for which the bioavailability turned out to be 38%.

The target of a further series is Disintegrin and metalloproteinase domain-containing protein 17 (Homo sapiens, UniProt P78536). The experiment in a line: Inhibition of TACE assessed as substrate cleavage by measuring increase in fluorescence after 16 hrs.
Chain of Disintegrin and metalloproteinase domain-containing protein 17 (P78536 whole entry, the tested form may be a part): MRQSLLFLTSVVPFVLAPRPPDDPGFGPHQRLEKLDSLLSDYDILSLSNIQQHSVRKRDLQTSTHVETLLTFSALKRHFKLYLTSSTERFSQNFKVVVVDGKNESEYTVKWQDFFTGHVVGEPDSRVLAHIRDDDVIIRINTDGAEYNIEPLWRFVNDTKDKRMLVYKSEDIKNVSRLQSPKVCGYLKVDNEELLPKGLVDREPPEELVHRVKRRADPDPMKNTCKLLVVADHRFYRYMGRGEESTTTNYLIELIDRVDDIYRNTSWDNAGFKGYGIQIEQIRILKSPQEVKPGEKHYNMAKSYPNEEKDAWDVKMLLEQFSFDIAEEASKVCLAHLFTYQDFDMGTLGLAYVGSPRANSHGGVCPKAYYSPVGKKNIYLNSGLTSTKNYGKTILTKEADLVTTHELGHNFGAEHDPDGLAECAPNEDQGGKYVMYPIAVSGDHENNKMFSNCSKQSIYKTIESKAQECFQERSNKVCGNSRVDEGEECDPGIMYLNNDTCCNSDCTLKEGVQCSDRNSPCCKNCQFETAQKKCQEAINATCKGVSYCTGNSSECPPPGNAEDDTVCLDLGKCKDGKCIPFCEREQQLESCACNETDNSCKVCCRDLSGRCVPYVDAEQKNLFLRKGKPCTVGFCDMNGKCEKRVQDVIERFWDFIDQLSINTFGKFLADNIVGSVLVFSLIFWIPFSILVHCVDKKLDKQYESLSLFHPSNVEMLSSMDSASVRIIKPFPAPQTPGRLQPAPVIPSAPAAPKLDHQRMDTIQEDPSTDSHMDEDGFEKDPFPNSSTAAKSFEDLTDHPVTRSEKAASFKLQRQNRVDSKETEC
Conditions: not given
Consider `Cc1cc(C(F)(F)F)ccc1CCC1CCN(S(=O)(=O)C[C@](C)(C[C@H](C)c2ncc(F)cn2)N(O)C=O)CC1`, for which the pIC50 was 6.38.

System in a further series: not listed separately
Description: Intrinsic clearance in human liver microsomes.
Conditions: not given
For orientation: microsomal CLint means a measure of how fast metabolising enzymes remove a compound, apart from limits set by blood flow. The low end stands for greater metabolic stability, the high end for faster metabolism. `C[C@@H](C[C@@](C)(CS(=O)(=O)N1CCN(CCc2ccc(Cl)cc2Cl)CC1)N(O)C=O)c1ncc(F)cn1` registered an intrinsic clearance (microsomal CLint) of 54 µL/min/mg.

`C[C@@H](C[C@@](C)(CS(=O)(=O)N1CCC(CCc2ccc(Cl)cc2Cl)CC1)N(O)C=O)c1ncc(F)cn1`: the intrinsic clearance (microsomal CLint) is 6.9 µL/min/mg.

For the next series, the target named is T2, Interstitial collagenase (Homo sapiens, UniProt P03956).
T2 sequence (P03956 whole entry): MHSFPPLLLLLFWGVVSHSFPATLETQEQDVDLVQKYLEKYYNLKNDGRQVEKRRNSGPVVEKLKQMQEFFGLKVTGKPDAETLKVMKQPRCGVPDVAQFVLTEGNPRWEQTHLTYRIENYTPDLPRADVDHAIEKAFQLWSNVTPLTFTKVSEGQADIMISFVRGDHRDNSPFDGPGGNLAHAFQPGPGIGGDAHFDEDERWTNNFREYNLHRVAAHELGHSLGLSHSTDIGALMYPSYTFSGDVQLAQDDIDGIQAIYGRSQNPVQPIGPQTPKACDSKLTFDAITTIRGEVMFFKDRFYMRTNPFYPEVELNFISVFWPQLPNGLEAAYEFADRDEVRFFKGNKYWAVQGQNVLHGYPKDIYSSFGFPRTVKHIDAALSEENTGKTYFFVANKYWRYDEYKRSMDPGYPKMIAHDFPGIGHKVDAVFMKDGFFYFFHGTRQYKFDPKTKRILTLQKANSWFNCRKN
Description: Inhibition of recombinant human MMP1 assessed as substrate cleavage by measuring increase in fluorescence after 16 hrs.
Conditions: not given
As for `Cc1cc(C(F)(F)F)ccc1CCC1CCN(S(=O)(=O)C[C@](C)(C[C@H](C)c2ncc(F)cn2)N(O)C=O)CC1`, the pIC50 was less than 5.00.

`C[C@@H](C[C@@H](CS(=O)(=O)N1CCN(c2ccc(F)cc2)CC1)N(O)C=O)c1ncc(F)cn1`: the pIC50 was less than 5.96.

For the compound `C[C@@H](C[C@@](C)(CS(=O)(=O)N1CCN(c2ccc(F)cc2)CC1)N(O)C=O)c1ncc(F)cn1`, the pIC50 was 6.01.
